Measured values published in patent publication US12662482B2 (The Johns Hopkins University, priority 2020, dated 2026).
Counter-ions that a name gives are not always drawn.

System: RPA194
Assay: RPA194 destruction / Pol I inhibition, high-content imaging in A375 cells
Assay type: cell-based
Settings: A375 cells treated for 4 hours, anti-RPA194 immunofluorescence; pIC50 >= 5.02 deemed a Pol I inhibitor
Method: Cell culture: A375 cells (CRL-1619, ATCC) were grown in DMEM (GJBCO) supplemented with […] (GTBCO) in 5% CO2 at 37° C.
Cell treatment and Imaging: 18 hours post-seeding in cell carrier black 384-well plates (PerkinElmer) at 15 000 cells/well, A375 cells were treated for 4 hours with a positive control or test compounds (9 serial semi-log dilutions, top concentration 10 μM). Upon treatment A375 cells were (i) fixed for 15 min at RT with 4% of paraformaldehyde, (ii) permeabilized for 20 min at RT with 0.1-0.5% of NP-40, (iii) incubated with primary antibodies at 4° C.: anti-RPA194 (1:1000-1:1250 dilution, sc-48385, Santa Cruz Biotechnology) and anti-gH2Ax (1:5000 dilution, 81299, Abcam or 1:4000, JBW302, Millipore) (iv) incubated for 1 h at RT with Hoechst (1:5000 dilution, H3570, ThermoFisher) and secondary antibodies: anti-mouse-AlexaFluor488 (1:2000 dilution, A11001, ThermoFisher) and anti-rabbit-AlexaFluor647 (1:2000 dilution, A21443, ThermoFisher) or goat anti-mouse AlexaFluor-594 (1:1000 dilution). Images were acquired on an Operetta CLS High-Content Analysis System (PerkinElmer) (40× objective; 9 fields/well) and processed using the Columbus Image Analysis System (PerkinElmer) or by using Molecular Devices ImageXpress Micro XLS High Content Imager and MetaXpress high-content acquisition and analysis software.
In the table below, (+) is associated with a pIC50 5.02 to 5.8; (++) with pIC50 5.8 to 6.3; and (+++) with a pIC50 above 6.3.

SMILES | Activity Range (pIC50)
O=C(NCCN1CCCC1)c1cccn2c(=O)c3ccc4ccccc4c3nc12 [Example 4, 7-oxo-N-(2-(pyrrolidin-1-yl)ethyl)-7H-benzo[h]pyrido[2,1-b]quinazoline-12-carboxamide hydrochloride] | +++ ((+++) with a pIC50 above 6.3)
O=C(NC1CNC1)c1cccn2c(=O)c3ccc4ccccc4c3nc12 [Example 8, N-(azetidin-3-yl)-7-oxo-7H-benzo[h]pyrido[2,1-b]quinazoline-12-carboxamide dihydrochloride] | + ((+) is associated with a pIC50 5.02 to 5.8)
C[C@H]1CCCN1CCNC(=O)c1cccn2c(=O)c3ccc4ccccc4c3nc12 [Example 36, (S)-N-(2-(2-methylpyrrolidin-1-yl)ethyl)-7-oxo-7H-benzo[h]pyrido[2,1-b]quinazoline-12-yl)ethan-1-carboxamide; hydrochloride] | + ((+) is associated with a pIC50 5.02 to 5.8)
NCCNC(=O)c1cccn2c(=O)c3ccc4ccccc4c3nc12 [Example 17, N-(2-aminoethyl)-7-oxo-7H-benzo[h]pyrido[2,1-b]quinazoline-12-carboxamide hydrochloride] | + ((+) is associated with a pIC50 5.02 to 5.8)
O=C(NCCN1CC[C@H](F)C1)c1cccn2c(=O)c3ccc4ccccc4c3nc12 [Example 33, (S)-N-(2-(3-fluoropyrrolidin-1-yl)ethyl)-7-oxo-7H-benzo[h]pyrido[2,1-b]quinazoline-12-carboxamide; hydrochloride] | + ((+) is associated with a pIC50 5.02 to 5.8)
CN(C)CCNC(=O)c1cccn2c(=O)c3ccc4ccccc4c3nc12 [Example 1, hydrochloride] | +++ ((+++) with a pIC50 above 6.3)

Results, then the compound that gave them:

Activity Range (pIC50) | SMILES
+++ ((+++) with a pIC50 above 6.3) | O=C(NCCN1CC[C@@H](O)C1)c1cccn2c(=O)c3ccc4ccccc4c3nc12 [Example 3, (R)-N-(2-(3-hydroxypyrrolidin-1-yl)ethyl)-7-oxo-7H-benzo[h]pyrido[2,1-b]quinazoline-12-carboxamide; hydrochloride]
++ ((++) with pIC50 5.8 to 6.3) | CN(C)C(C)(C)CNC(=O)c1cccn2c(=O)c3ccc4ccccc4c3nc12 [Example 6, N-(2-(dimethylamino)-2-methylpropyl)-7-oxo-7H-benzo[h]pyrido[2,1-b]quinazoline-12-carboxamide hydrochloride]
++ ((++) with pIC50 5.8 to 6.3) | O=C1CCN(CCNC(=O)c2cccn3c(=O)c4ccc5ccccc5c4nc23)CC1 [Example 22, 7-oxo-N-(2-(4-oxopiperidin-1-yl)ethyl)-7H-benzo[h]pyrido[2,1-b]quinazoline-12-carboxamide hydrochloride]
++ ((++) with pIC50 5.8 to 6.3) | CN1CC(NC(=O)c2cccn3c(=O)c4ccc5ccccc5c4nc23)C1 [Example 9, N-(1-methylazetidin-3-yl)-7-oxo-7H-benzo[h]pyrido[2,1-b]quinazoline-12-carboxamide hydrochloride]
++ ((++) with pIC50 5.8 to 6.3) | C[C@@H](CNC(=O)c1cccn2c(=O)c3ccc4ccccc4c3nc12)N(C)C [Example 10, (S)-N-(2-(dimethylamino)propyl)-7-oxo-7H-benzo[h]pyrido[2,1-b]quinazoline-12-carboxamide; hydrochloride]
+++ ((+++) with a pIC50 above 6.3) | O=C(NCCN1CCC(O)CC1)c1cccn2c(=O)c3ccc4ccccc4c3nc12 [Example 5, N-(2-(4-hydroxypiperidin-1-yl)ethyl)-7-oxo-7H-benzo[h]pyrido[2,1-b]quinazoline-12-carboxamide hydrochloride]
++ ((++) with pIC50 5.8 to 6.3) | C[C@H](CN1C[C@H](O)[C@@H](O)C1)NC(=O)c1cccn2c(=O)c3ccc4ccccc4c3nc12 [Example 27, N-((R)-1-((3S,4S)-3,4-dihydroxy-pyrrolidin-1-yl)propan-2-yl)-7-oxo-7H-benzo[h]pyrido[2,1-b]quinazoline-12-carboxamide hydrochloride]

System: mouse xenograft
Assay: not given
Settings: mouse xenograft assays; cited from earlier work

SMILES | tumor burden
CN(C)CCNC(=O)c1cccn2c(=O)c3cc4ccccc4cc3nc12 [BMH-21, 12H-Benzo[g]pyrido[2,1-b]quinazoline-4-carboxamide, N-[2(dimethylamino)ethyl]-12-oxo] | reduced tumor burden

System: NCI60 cancer cell lines
Assay: not given
Settings: cited from earlier work

SMILES | anticancer activity
CN(C)CCNC(=O)c1cccn2c(=O)c3cc4ccccc4cc3nc12 [BMH-21, 12H-Benzo[g]pyrido[2,1-b]quinazoline-4-carboxamide, N-[2(dimethylamino)ethyl]-12-oxo] | anticancer activity
